Reference: ChEMBL document CHEMBL1201862, “PubChem BioAssay data set” (2004)
Each block holds one compound with its values, some of them ahead of it. Activity calls are given as the source filed them.

How the values were obtained:
[1] = target: Voltage-gated inwardly rectifying potassium channel KCNH2 (Homo sapiens, UniProt Q12809); settings: Potency;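 further: confirmatory quantitative high-throughput screen measuring inhibition of hERG channel activity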
Protein skinhead-1 = target: T1, Protein skinhead-1 (Caenorhabditis elegans, UniProt P34707); assay type: functional
T1 sequence (P34707 whole entry): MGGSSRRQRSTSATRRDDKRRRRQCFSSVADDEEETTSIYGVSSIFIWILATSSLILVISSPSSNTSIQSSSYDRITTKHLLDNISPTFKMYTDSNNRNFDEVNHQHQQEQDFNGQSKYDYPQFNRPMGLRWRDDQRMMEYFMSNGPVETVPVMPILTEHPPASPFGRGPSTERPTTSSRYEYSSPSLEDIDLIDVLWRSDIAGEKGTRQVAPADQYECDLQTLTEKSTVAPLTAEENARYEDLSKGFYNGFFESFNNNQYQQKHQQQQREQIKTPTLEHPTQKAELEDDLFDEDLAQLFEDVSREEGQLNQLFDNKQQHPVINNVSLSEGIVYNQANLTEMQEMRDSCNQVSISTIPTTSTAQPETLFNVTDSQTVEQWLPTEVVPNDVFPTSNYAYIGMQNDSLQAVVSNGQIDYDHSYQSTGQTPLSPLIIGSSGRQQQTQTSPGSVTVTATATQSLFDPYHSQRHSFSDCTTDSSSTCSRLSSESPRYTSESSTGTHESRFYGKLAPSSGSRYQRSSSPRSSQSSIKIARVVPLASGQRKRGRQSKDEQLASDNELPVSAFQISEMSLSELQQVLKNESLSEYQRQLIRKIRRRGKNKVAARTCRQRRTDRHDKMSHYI

[2] = target: T2, Heat shock protein HSP 90-alpha (Homo sapiens, UniProt P07900); assay: Luminescence-based dose response biochemical high throughput screening assay for inhibitors of the Heat Shock Protein 90 (HSP90). [Related pubchem assays: 1831 (Summary AID.), 1846 (Confirmation screen.), 1789 (Primary screen.)]
[3] = target: Beta-adrenergic receptor kinase 1 (Homo sapiens, UniProt P25098); assay: aptamer displacement from bead-bound GRK2 – biochemical, cherry pick 1, bead flow cytometry, dose response (AID 504500)
[4] = target: T3, Beta-2 adrenergic receptor (Homo sapiens, UniProt P07550); assay: beta2AR agonists driving receptor internalization, dose response, cell-based, FAP fluorogen, flow cytometry, cherry pick 1 (AID 588763); assay type: functional
T3 sequence (P07550 whole entry): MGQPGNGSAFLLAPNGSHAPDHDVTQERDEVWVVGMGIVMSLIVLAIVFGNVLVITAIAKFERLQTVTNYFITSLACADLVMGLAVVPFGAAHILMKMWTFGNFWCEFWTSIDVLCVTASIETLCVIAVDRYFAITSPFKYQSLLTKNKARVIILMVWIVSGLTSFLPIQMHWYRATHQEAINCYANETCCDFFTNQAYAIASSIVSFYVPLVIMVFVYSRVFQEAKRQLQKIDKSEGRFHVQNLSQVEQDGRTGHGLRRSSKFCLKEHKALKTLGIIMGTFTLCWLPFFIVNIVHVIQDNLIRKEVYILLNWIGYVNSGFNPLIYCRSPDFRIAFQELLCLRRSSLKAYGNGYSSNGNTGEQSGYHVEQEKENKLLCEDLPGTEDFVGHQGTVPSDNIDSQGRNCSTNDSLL

[5] = target: T3, Beta-2 adrenergic receptor; assay: Dose response for HTS for Beta-2AR agonists via FAP method from Powderset3.; assay type: functional
Phospholipase A2 = Phospholipase A2 (Homo sapiens, UniProt P04054); assay type: functional;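 further: confirmatory dose-response counterscreen on phospholipase A2, testing hits that came from an ultra-high-throughput screen for ATG4B inhibitors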
Cysteine protease ATG4B = Cysteine protease ATG4B (Homo sapiens, UniProt Q9Y4P1); assay type: functional;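 further: Fluorescence-based dose-response confirmation assay measuring inhibition of ATG4B activity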
[6] = HIV-1 Env-mediated cell fusion inhibitors, dose response, CCR5-tropic Env (AID 2279); assay type: functional
[7] = target: T4, Carboxy-terminal domain RNA polymerase II polypeptide A small phosphatase 1 (Homo sapiens, UniProt Q9GZU7); assay: inhibitors of CTDSP1, concentration-response testing, biochemical assay, absorbance-based, actives from ultra-high-throughput screening (AID 540297); assay type: functional
T4 sequence (Q9GZU7 whole entry): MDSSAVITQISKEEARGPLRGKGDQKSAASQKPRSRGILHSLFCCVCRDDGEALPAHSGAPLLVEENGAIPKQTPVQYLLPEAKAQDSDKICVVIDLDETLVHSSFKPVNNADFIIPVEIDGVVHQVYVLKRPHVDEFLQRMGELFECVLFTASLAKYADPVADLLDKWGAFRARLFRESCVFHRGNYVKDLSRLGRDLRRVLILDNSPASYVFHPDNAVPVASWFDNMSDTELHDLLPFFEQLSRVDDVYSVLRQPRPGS

[8] = target: Envelope glycoprotein gp160 (Human immunodeficiency virus 1, UniProt Q6QLK5); assay: inhibitors of HIV fusion peptide binding, primary screen, biochemical, uHTS, fluorescence dequenching (AID 1986)
[9] = target: T5, Glycogen synthase kinase-3 beta (Homo sapiens, UniProt P49841); assay: Inhibition of Human GSK-3 beta Activity Measured in Biochemical System Using Microfluidics - 2063-05_Inhibitor_Dose_DryPowder_Activity. [Related pubchem assays (depositor defined):AID2709]
T5 sequence (P49841 whole entry): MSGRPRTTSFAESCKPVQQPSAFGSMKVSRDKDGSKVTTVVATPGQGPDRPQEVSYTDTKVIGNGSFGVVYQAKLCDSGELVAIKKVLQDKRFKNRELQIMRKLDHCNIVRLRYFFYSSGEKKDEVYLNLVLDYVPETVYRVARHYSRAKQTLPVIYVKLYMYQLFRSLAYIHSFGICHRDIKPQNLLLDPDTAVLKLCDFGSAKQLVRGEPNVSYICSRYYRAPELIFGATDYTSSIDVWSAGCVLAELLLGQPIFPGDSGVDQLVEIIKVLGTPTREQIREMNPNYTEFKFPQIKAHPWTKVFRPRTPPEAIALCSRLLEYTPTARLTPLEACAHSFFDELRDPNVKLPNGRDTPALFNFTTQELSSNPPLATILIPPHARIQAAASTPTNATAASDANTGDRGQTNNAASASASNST

[10] = target: T6, Glycogen synthase kinase-3 alpha (Homo sapiens, UniProt P49840); assay: Inhibition of Human GSK-3 alpha Activity Measured in Biochemical System Using Microfluidics - 2063-06_Inhibitor_Dose_DryPowder_Activity. [Related pubchem assays (depositor defined):AID2709]
T6 sequence (P49840 whole entry): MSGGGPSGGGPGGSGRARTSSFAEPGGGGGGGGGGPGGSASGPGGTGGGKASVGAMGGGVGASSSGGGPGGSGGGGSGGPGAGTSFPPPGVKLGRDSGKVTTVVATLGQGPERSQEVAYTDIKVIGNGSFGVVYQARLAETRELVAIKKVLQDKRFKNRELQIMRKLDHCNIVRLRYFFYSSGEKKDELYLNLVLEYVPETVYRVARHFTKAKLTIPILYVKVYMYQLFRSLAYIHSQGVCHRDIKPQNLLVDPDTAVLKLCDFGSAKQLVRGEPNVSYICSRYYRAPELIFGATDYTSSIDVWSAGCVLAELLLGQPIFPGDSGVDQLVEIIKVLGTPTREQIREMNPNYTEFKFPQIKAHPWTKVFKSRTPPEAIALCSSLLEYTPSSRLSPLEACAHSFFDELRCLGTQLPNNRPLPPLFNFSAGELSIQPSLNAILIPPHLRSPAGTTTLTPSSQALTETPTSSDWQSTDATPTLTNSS

[11] = target: T6, Glycogen synthase kinase-3 alpha; assay: Inhibition of Human GSK-3 alpha Activity Measured in Biochemical System Using Microfluidics - 2063-06_Inhibitor_Dose_DryPowder_Activity_Set2. [Related pubchem assays (depositor defined):AID2709]
[12] = target: T5, Glycogen synthase kinase-3 beta; assay: Inhibition of Human GSK-3 beta Activity Measured in Biochemical System Using Microfluidics - 2063-05_Inhibitor_Dose_DryPowder_Activity_Set2. [Related pubchem assays (depositor defined):AID2709]
[13] = target: Cyclin-dependent kinase 5/CDK5 activator 1 (Homo sapiens, UniProt Q00535); assay: CDK5-p25 kinase inhibitors, specificity check, dose response, selectivity assay for GSK-3 alpha inhibitor project, biochemical, microfluidic mobility shift, dry powder (AID 588430)
Phospholipase D1 [14] = target: T7, Phospholipase D1 (Homo sapiens, UniProt Q13393); assay: PLD1 inhibitor potency in cells, dose response (AID 602151); assay type: functional;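 further: cellular PLD1 assay in Calu-1 cells stimulated with PMA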
T7 sequence (Q13393 whole entry): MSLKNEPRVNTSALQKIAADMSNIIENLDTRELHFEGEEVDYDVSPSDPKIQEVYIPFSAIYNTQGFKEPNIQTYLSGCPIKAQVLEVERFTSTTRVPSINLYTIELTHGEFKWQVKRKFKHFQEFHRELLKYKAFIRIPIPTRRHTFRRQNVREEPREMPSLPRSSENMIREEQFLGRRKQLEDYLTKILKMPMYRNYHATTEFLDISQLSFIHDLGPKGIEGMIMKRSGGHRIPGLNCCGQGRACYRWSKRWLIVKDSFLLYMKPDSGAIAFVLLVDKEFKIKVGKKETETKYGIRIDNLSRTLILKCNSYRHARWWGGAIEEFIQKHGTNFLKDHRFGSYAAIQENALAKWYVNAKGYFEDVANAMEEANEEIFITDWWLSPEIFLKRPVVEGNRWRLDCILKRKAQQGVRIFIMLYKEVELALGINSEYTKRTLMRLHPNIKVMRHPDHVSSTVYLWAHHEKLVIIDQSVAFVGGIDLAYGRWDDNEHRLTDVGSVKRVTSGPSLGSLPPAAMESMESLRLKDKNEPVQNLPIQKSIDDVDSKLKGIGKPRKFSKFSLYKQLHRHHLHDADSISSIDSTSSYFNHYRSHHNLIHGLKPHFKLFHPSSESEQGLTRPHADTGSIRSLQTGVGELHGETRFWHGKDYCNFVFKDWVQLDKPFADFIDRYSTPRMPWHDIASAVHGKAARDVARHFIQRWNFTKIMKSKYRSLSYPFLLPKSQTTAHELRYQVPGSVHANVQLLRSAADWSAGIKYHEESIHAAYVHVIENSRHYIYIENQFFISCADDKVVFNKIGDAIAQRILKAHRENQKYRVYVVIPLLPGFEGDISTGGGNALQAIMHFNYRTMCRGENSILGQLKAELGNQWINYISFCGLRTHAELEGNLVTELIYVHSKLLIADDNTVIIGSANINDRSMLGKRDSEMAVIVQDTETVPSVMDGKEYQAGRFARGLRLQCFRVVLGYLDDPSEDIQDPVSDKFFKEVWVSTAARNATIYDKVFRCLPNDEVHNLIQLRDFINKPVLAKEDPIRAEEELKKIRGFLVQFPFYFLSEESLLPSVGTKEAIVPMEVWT

Phospholipase D2 [15] = target: T8, Phospholipase D2 (Homo sapiens, UniProt O14939); assay: PLD2 purified enzyme concentration response. [Related pubchem assays (depositor defined):AID588854]; assay type: functional
T8 sequence (O14939 whole entry): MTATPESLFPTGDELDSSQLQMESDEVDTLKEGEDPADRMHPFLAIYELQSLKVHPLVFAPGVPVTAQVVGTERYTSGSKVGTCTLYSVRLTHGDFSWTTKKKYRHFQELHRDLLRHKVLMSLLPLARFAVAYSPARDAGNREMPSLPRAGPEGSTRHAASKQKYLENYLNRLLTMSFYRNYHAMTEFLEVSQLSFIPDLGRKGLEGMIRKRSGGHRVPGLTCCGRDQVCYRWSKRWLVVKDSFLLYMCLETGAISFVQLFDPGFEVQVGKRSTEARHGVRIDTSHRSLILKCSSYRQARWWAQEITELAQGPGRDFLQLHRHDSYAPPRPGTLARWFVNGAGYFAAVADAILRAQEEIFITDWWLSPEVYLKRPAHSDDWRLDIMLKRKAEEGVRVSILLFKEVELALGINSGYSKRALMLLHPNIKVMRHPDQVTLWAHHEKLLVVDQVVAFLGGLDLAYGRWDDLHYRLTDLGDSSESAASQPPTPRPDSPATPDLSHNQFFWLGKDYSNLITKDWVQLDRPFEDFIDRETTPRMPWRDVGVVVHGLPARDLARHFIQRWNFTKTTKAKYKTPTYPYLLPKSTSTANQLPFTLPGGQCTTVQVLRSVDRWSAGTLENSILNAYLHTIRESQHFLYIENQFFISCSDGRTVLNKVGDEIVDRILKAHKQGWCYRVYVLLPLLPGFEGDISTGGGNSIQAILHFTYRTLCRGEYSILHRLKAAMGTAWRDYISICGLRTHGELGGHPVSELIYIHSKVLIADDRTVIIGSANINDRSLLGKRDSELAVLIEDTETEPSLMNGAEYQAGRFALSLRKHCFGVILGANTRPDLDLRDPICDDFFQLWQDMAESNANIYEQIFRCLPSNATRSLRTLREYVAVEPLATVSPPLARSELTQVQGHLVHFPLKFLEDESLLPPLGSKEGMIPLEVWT

Phospholipase D2 [16] = target: T8, Phospholipase D2; assay: PLD2 inhibitor potency in cells, dose response (AID 602147); assay type: functional;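 further: cellular assay in HEK293 cells overexpressing GFP-tagged PLD2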
Phospholipase D1 [17] = target: T7, Phospholipase D1; assay: PLD1 purified enzyme concentration response. [Related pubchem assays (depositor defined):AID588854]; assay type: functional
[18] = target: Mitogen-activated protein kinase kinase kinase kinase 4 (Homo sapiens, UniProt O95819); assay type: functional
[19] = target: cAMP-dependent protein kinase catalytic subunit alpha (Homo sapiens, UniProt P17612); assay type: functional
[20] = target: Serine/threonine-protein kinase pim-1 (Homo sapiens, UniProt P11309); assay type: functional
[21] = target: T5, Glycogen synthase kinase-3 beta; assay type: functional
[22] = target: Cell division cycle 7-related protein kinase (Homo sapiens, UniProt O00311); assay type: functional;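 further: value obtained from a kinome-wide kinase panel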
[23] = target: Interleukin-1 receptor-associated kinase 4 (Homo sapiens, UniProt Q9NWZ3); assay type: functional
[24] = target: Homeodomain-interacting protein kinase 2 (Homo sapiens, UniProt Q9H2X6); assay type: functional;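 further: measured within a kinome-wide kinase profiling panel, HIPK2 being one panel member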
Wee1-like protein kinase = Wee1-like protein kinase (Homo sapiens, UniProt P30291); assay: Navigating the Kinome. Panel member name: WEE1; assay type: functional
[25] = target: ALK tyrosine kinase receptor (Homo sapiens, UniProt Q9UM73); assay type: functional;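 further: ALK tested as one member of a kinase panel screen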
Sequence of ALK tyrosine kinase receptor (Q9UM73 whole entry): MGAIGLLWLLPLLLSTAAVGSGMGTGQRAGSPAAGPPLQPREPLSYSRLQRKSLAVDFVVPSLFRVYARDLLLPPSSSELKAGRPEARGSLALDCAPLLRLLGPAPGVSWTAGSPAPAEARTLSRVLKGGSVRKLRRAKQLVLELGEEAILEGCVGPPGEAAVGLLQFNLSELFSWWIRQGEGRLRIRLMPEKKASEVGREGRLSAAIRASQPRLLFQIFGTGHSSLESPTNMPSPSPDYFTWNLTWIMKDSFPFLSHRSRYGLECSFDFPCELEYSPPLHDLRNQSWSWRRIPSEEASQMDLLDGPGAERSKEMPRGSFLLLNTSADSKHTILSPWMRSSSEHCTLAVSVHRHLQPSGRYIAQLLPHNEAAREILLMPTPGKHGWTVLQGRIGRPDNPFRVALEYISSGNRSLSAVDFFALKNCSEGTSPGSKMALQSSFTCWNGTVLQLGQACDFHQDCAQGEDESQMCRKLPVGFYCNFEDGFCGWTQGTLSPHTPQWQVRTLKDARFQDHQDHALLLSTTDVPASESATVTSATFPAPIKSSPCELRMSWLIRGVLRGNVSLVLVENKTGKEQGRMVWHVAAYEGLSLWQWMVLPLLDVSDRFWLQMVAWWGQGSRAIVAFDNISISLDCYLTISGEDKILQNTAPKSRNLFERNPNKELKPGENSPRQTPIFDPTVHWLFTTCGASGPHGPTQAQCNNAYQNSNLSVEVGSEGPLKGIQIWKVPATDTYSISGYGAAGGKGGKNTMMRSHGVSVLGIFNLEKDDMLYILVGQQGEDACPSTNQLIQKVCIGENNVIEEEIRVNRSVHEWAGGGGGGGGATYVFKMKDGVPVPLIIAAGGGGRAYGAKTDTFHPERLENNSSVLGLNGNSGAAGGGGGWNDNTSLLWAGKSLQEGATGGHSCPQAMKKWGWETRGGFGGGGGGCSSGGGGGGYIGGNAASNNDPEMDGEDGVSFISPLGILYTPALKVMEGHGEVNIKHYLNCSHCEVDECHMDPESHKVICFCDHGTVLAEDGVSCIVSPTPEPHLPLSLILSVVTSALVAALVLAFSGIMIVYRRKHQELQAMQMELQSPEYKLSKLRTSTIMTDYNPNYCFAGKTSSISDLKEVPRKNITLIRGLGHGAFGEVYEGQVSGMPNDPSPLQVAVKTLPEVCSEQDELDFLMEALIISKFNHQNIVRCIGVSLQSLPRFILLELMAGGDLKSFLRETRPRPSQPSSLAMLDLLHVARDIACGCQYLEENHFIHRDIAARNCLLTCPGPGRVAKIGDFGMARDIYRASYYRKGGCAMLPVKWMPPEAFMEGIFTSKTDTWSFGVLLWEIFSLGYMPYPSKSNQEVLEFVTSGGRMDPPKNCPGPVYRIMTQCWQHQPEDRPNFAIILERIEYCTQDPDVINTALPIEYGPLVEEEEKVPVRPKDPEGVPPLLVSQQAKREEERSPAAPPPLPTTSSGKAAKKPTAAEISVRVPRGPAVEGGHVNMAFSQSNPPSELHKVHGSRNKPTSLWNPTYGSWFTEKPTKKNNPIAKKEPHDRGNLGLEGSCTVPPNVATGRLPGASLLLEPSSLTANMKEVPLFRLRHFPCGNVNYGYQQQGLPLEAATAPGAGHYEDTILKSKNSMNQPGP

[26] = target: Serine/threonine-protein kinase Chk2 (Homo sapiens, UniProt O96017); assay type: functional;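 further: CHEK2 entry within a kinome-wide screening panel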
[27] = target: Casein kinase I isoform delta (Homo sapiens, UniProt P48730); assay type: functional;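 further: measured as one member (CSNK1D) of a kinome panel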
[28] = target: Cyclin-dependent kinase 5 (Homo sapiens, UniProt Q00535); assay type: functional;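 further: CDK5 measured as one member of a kinase profiling panel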
[29] = target: Cyclin-dependent kinase 2 (Homo sapiens, UniProt P24941); assay type: functional;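 further: CDK2 measured as one member of a broad kinome profiling panel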
[30] = target: Cyclin-dependent kinase 1 (Homo sapiens, UniProt P06493); assay type: functional;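 further: Kinome-wide panel profiling, with the target listed as panel member CDC2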
[31] = target: MAP kinase-activated protein kinase 3 (Homo sapiens, UniProt Q16644); assay type: functional;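 further: value comes from a kinome-wide profiling panel in which MAPKAPK3 is one of the panel members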
[32] = target: Cyclin-dependent kinase 19 (Homo sapiens, UniProt Q9BWU1); assay: Navigating the Kinome. Panel member name: CDC2L6; assay type: functional
[33] = target: DNA dC->dU-editing enzyme APOBEC-3G (Homo sapiens, UniProt Q9HC16); assay: APOBEC3G deaminase inhibitors, SAR follow-up, biochemical, fluorescence, single-stranded DNA substrate (AID 602136); assay type: functional; settings: read-out: IC50_Mean
[34] = target: DNA dC->dU-editing enzyme APOBEC-3A (Homo sapiens, UniProt P31941); assay: SAR analysis of small molecule inhibitors of APOBEC3A DNA Deaminase via a fluorescence-based single-stranded DNA deaminase assay.; assay type: functional; settings: read-out: IC50_Mean
[35] = target: Protein kinase C zeta type (Homo sapiens, UniProt Q05513); assay type: functional;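 further: measured as one member of a broad kinase profiling panel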
[36] = target: 3-phosphoinositide-dependent protein kinase 1 (Homo sapiens, UniProt O15530); assay type: functional;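 further: value comes from the Navigating the Kinome panel, PDPK1 member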
[37] = target: T2, Heat shock protein HSP 90-alpha; assay type: functional, organism-based
HSP90 = HSP90 (Plasmodium falciparum 3D7, UniProt Q8IL32); assay type: functional, organism-based
[38] = target: C-C chemokine receptor type 6 (Homo sapiens, UniProt P51684); assay: CCR6 receptor antagonists, dose response, cell-based, luminescent beta-arrestin readout (AID 504728); assay type: functional
Beta-galactosidase = Beta-galactosidase (Escherichia coli, UniProt Q8VNN2); assay: beta-galactosidase enzyme inhibitors and activators, dose response, artefact control for CCR6 antagonist project, biochemical, E. coli enzyme, set 3 (AID 504712); assay type: functional

SMILES: CC(=O)O[C@]1(C(C)=O)CC[C@H]2[C@@H]3C=C(Cl)C4=CC(=O)[C@@H]5C[C@H]5[C@]4(C)[C@H]3CC[C@@]21C
AC50 [1]: 35.5 µM (inconclusive)

SMILES: CCOc1cc(/C=C2\SC(=O)N(CC(=O)Nc3ccccc3F)C2=O)cc([N+](=O)[O-])c1O
IC50 (Phospholipase A2): 7.23 µM (active)
IC50 (Cysteine protease ATG4B): 9.16 µM (active)
IC50 [6]: 43.6 µM (active)
IC50 [7]: 9.89 µM (active)
IC50 [8]: 26.9 µM (active)

SMILES: Nc1nonc1-n1nnc(C(=O)N/N=C/c2ccccc2F)c1-c1cccs1
AC50 [11]: 0.422 µM (active)
AC50 [12]: 0.325 µM (active)
AC50 [13]: 9.28 µM (active)

SMILES: C[C@@H](CN1CCC(n2c(=O)[nH]c3ccccc32)CC1)NC(=O)COc1ccccc1
IC50 (Phospholipase D1 [14]): 0.002 µM (active)
IC50 (Phospholipase D2 [15]): 5.8 µM (active)
IC50 (Phospholipase D2 [16]): 3.8 µM (active)
IC50 (Phospholipase D1 [17]): 0.057 µM (active)

SMILES: OCCCCNc1cc(-c2c[nH]c3ncccc23)cc(Cl)n1
Ki [18]: 0.00316 µM (active)
Ki [19]: 0.251 µM (active)
Ki [20]: 0.501 µM (active)
Ki [21]: 0.1 µM (active)
Ki [22]: 0.000794 µM (active)
Ki [23]: 5.01 µM (active)
Ki [24]: 0.0251 µM (active)

SMILES: COc1ccccc1Nc1nc(Nc2cnn(C)c2)ncc1Br
Ki [25]: 1 µM (active)
Ki [32]: 5.01 µM (active)

SMILES: c1ccc2c(c1)OCC(c1nnc3c4c5c(sc4ncn13)CCCC5)O2 (stereo not given)
IC50 [33]: > 99 µM (inactive)
IC50 [34]: > 99 µM (inactive)

SMILES: O=C(NCc1ccc(Br)cc1)c1cnn2c(-c3ccccc3)ccnc12
Ki [35]: 2.51 µM (active)
Ki [36]: 2.51 µM (active)

SMILES: Oc1ccc(Cl)c2cccnc12 [CLOXYQUIN]
AC50 [37]: 6.15 µM (active)
AC50 (HSP90): 8.36 µM (active)
IC50 [38]: > 66.6 µM (inactive)
IC50 (Beta-galactosidase): > 66.6 µM (inactive)

More lines, now with the values ahead:

IC50 (Protein skinhead-1): > 100 µM (inactive)
IC50 [2]: 4.57 µM (active)
EC50 [3]: 3.5 µM (active)
SMILES: Cc1cc2ccccc2n1CCNC(=O)c1cccs1

EC50 [4]: 2.18 µM (active)
EC50 [5]: 1.51 µM (active)
SMILES: Cc1ccc(NC(=O)C(c2ccc(Cl)cc2)N2CCOCC2)cc1 (stereo not given)

AC50 [9]: 0.395 µM (active)
AC50 [10]: 1.67 µM (active)
SMILES: COC(=O)c1ccc(CSc2nnc(-c3ccncc3)o2)cc1

Ki (Wee1-like protein kinase): 0.0158 µM (active)
Ki [25]: 0.0398 µM (active)
SMILES: CCN1CCN(c2ccc(Nc3ncc(C)c(Nc4ccc5[nH]ncc5c4)n3)cc2)CC1

Ki [26]: 3.98 µM (active)
Ki [27]: 3.98 µM (active)
Ki [28]: 10 µM (active)
Ki [29]: 7.94 µM (active)
Ki [30]: 7.94 µM (active)
Ki [31]: 2 µM (active)
SMILES: Cc1c(NC2CCC(N)CC2)nc2ccnn2c1Nc1ccc(F)c(Cl)c1 (stereo not given)
